Experimental data from patent US11434242B2, “Dopamine-b-hydroxylase inhibitors” (BIAL-PORTELA & Cª, S.A., priority 2017, dated 2022).

Molecular target: T1, Dopamine beta hydroxylase (Homo sapiens, UniProt P09172)
T1 construct: 125 μl of plasma; tissue Instituto Português do Sangue Transplantação; host or cells: human plasma from healthy donors
T1 sequence (P09172 40-617 limits assumed): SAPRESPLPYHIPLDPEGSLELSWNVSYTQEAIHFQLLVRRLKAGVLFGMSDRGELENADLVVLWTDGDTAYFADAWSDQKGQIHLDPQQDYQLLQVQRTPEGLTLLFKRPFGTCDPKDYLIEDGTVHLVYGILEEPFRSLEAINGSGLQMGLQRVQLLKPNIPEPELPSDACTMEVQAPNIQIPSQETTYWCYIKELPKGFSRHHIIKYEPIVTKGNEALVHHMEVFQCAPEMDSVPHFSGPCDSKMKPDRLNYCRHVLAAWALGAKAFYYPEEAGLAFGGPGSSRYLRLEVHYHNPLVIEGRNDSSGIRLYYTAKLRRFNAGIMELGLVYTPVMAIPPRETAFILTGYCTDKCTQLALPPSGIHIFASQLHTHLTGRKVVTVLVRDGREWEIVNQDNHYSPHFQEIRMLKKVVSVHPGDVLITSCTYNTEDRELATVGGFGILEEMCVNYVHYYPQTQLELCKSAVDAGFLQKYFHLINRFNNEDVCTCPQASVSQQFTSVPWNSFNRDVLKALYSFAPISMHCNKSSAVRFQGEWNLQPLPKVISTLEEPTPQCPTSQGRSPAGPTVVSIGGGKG
Test: Dopamine beta hydroxylase activity in human plasma
Assay type: biochemical
Conditions: for Plasma (0.1 μM), activity in % of control: inhibitor 0.1 μM; for Plasma (1 μM), activity in % of control: inhibitor 1 μM; for Plasma (0.01 μM), activity in % of control: inhibitor 0.01 μM
How it was run: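 Healthy-donor human plasma pre-incubated 10 min at 37° C with compound at final 10, 100 or 1000 nM in pH 5.0 acetate buffer with ascorbate, fumarate, pargyline, N-ethylmaleimide, catalase and copper sulfate. Tyramine substrate then added for 45 min; octopamine formed was isolated by SCX cartridge, periodate-converted and read at 330 nm; activity given as % control.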

COCCNC(=O)Cc1[nH]c(=S)n2c1C[C@@H](c1c(F)ccc(Br)c1F)C2 [Example 103, (S)-2-(6-(3-bromo-2,6-difluorophenyl)-3-thioxo-2,5,6,7-tetrahydro-3H-pyrrolo[1,2-c]imidazol-1-yl)-N-(2-methoxyethyl)acetamide]
Plasma (0.1 μM), activity in % of control: 21.6 % of control
Plasma (1 μM), activity in % of control: 1.8 % of control

O=C(Cc1[nH]c(=S)n2c1C[C@H](c1c(F)c(F)cc(F)c1F)C2)N1CCCC1 [Example 104, (R)-1-(pyrrolidin-1-yl)-2-(6-(2,3,5,6-tetrafluorophenyl)-3-thioxo-2,5,6,7-tetrahydro-3H-pyrrolo[1,2-c]imidazol-1-yl)ethan-1-one]
Plasma (0.1 μM), activity in % of control: 67.9 % of control
Plasma (1 μM), activity in % of control: 19.5 % of control

O=C(Cc1[nH]c(=S)n2c1C[C@@H](c1c(F)c(F)cc(F)c1F)C2)N1CCCC1 [Example 105, (S)-1-(pyrrolidin-1-yl)-2-(6-(2,3,5,6-tetrafluorophenyl)-3-thioxo-2,5,6,7-tetrahydro-3H-pyrrolo[1,2-c]imidazol-1-yl)ethan-1-one]
Plasma (0.1 μM), activity in % of control: 74.9 % of control
Plasma (1 μM), activity in % of control: 22.0 % of control

Cl.O=C(Cc1[nH]c(=S)n2c1C[C@@H](c1c(F)ccc(Cl)c1F)C2)NCCc1ccccn1 [Example 106, (S)-2-(6-(3-chloro-2,6-difluorophenyl)-3-thioxo-2,5,6,7-tetrahydro-3H-pyrrolo[1,2-c]imidazol-1-yl)-N-(2-(pyridin-2-yl)ethyl)acetamide hydrochloride]
Plasma (0.1 μM), activity in % of control: 33.9 % of control
Plasma (1 μM), activity in % of control: 4.1 % of control

COCCNC(=O)Cc1[nH]c(=S)n2c1C[C@@H](c1c(F)ccc(Cl)c1F)C2 [Example 107, (S)-2-(6-(3-chloro-2,6-difluorophenyl)-3-thioxo-2,5,6,7-tetrahydro-3H-pyrrolo[1,2-c]imidazol-1-yl)-N-(2-methoxyethyl)acetamide]
Plasma (0.1 μM), activity in % of control: 40.1 % of control
Plasma (1 μM), activity in % of control: 6.3 % of control

NC(=O)Cc1[nH]c(=S)n2c1C[C@@H](c1c(F)ccc(Cl)c1F)C2 [Example 108, (S)-2-(6-(3-chloro-2,6-difluorophenyl)-3-thioxo-2,5,6,7-tetrahydro-3H-pyrrolo[1,2-c]imidazol-1-yl)acetamide]
Plasma (0.1 μM), activity in % of control: 46.9 % of control
Plasma (1 μM), activity in % of control: 5.3 % of control

Cl.O=C(Cc1[nH]c(=S)n2c1C[C@@H](c1c(F)ccc(Cl)c1F)C2)NCc1cccnc1 [Example 109, (S)-2-(6-(3-chloro-2,6-difluorophenyl)-3-thioxo-2,5,6,7-tetrahydro-3H-pyrrolo[1,2-c]imidazol-1-yl)-N-(pyridin-3-ylmethyl)acetamide Hydrochloride]
Plasma (0.1 μM), activity in % of control: 5.4 % of control
Plasma (1 μM), activity in % of control: 1.5 % of control

O=C(Cc1[nH]c(=S)n2c1C[C@@H](c1c(F)ccc(Cl)c1F)C2)N1CCCC1 [Example 110, (S)-2-(6-(3-chloro-2,6-difluorophenyl)-3-thioxo-2,5,6,7-tetrahydro-3H-pyrrolo[1,2-c]imidazol-1-yl)-1-(pyrrolidin-1-yl)ethan-1-one]
Plasma (0.1 μM), activity in % of control: 52.4 % of control
Plasma (1 μM), activity in % of control: 9.7 % of control

O=C(Cc1[nH]c(=S)n2c1C[C@@H](c1c(F)ccc(Cl)c1F)C2)N1CCC(F)(F)CC1 [Example 111, (S)-2-(6-(3-chloro-2,6-difluorophenyl)-3-thioxo-2,5,6,7-tetrahydro-3H-pyrrolo[1,2-c]imidazol-1-yl)-1-(4,4-difluoropiperidin-1-yl)ethan-1-one]
Plasma (0.01 μM), activity in % of control: 89.6 % of control
Plasma (0.1 μM), activity in % of control: 36.7 % of control

O=C(Cc1[nH]c(=S)n2c1C[C@@H](c1c(F)ccc(Cl)c1F)C2)NC1CCS(=O)(=O)CC1 [Example 112, (S)-2-(6-(3-chloro-2,6-difluorophenyl)-3-thioxo-2,5,6,7-tetrahydro-3H-pyrrolo[1,2-c]imidazol-1-yl)-N-(1,1-dioxidotetrahydro-2H-thiopyran-4-yl)acetamide]
Plasma (0.01 μM), activity in % of control: 9.9 % of control
Plasma (0.1 μM), activity in % of control: 0 % of control

O=C(Cc1[nH]c(=S)n2c1C[C@@H](c1c(F)ccc(Cl)c1F)C2)NCC(F)(F)F [Example 113, (S)-2-(6-(3-chloro-2,6-difluorophenyl)-3-thioxo-2,5,6,7-tetrahydro-3H-pyrrolo[1,2-c]imidazol-1-yl)-N-(2,2,2-trifluoroethyl)acetamide]
Plasma (0.01 μM), activity in % of control: 85.1 % of control
Plasma (0.1 μM), activity in % of control: 25.6 % of control

CS(=O)(=O)CCNC(=O)Cc1[nH]c(=S)n2c1C[C@@H](c1c(F)ccc(Cl)c1F)C2 [Example 114, (S)-2-(6-(3-chloro-2,6-difluorophenyl)-3-thioxo-2,5,6,7-tetrahydro-3H-pyrrolo[1,2-c]imidazol-1-yl)-N-(2-(methylsulfonyl)ethyl)acetamide]
Plasma (0.01 μM), activity in % of control: 58.4 % of control
Plasma (0.1 μM), activity in % of control: 7.5 % of control

Cl.O=C(Cc1[nH]c(=S)n2c1C[C@@H](c1c(F)ccc(Cl)c1F)C2)NCCN1CCC(F)(F)CC1 [Example 115, (S)-2-(6-(3-chloro-2,6-difluorophenyl)-3-thioxo-2,5,6,7-tetrahydro-3H-pyrrolo[1,2-c]imidazol-1-yl)-N-(2-(4,4-difluoropiperidin-1-yl)ethyl)acetamide Hydrochloride]
Plasma (0.01 μM), activity in % of control: 48.0 % of control
Plasma (0.1 μM), activity in % of control: 0 % of control

O=C(Cc1[nH]c(=S)n2c1C[C@H](c1c(F)ccc(Br)c1F)C2)N[C@@H]1CCOC1 [Example 116, 2-((R)-6-(3-bromo-2,6-difluorophenyl)-3-thioxo-2,5,6,7-tetrahydro-3H-pyrrolo[1,2-c]imidazol-1-yl)-N—((R)-tetrahydrofuran-3-yl)acetamide]
Plasma (0.01 μM), activity in % of control: 93.8 % of control
Plasma (0.1 μM), activity in % of control: 68.8 % of control

O=C(Cc1[nH]c(=S)n2c1C[C@H](c1c(F)ccc(Br)c1F)C2)N1CCC(F)(F)CC1 [Example 117, (R)-2-(6-(3-bromo-2,6-difluorophenyl)-3-thioxo-2,5,6,7-tetrahydro-3H-pyrrolo[1,2-c]imidazol-1-yl)-1-(4,4-difluoropiperidin-1-yl)ethan-1-one]
Plasma (0.01 μM), activity in % of control: 74.5 % of control
Plasma (0.1 μM), activity in % of control: 43.0 % of control

CS(=O)(=O)CCNC(=O)Cc1[nH]c(=S)n2c1C[C@H](c1c(F)ccc(Br)c1F)C2 [Example 118, (R)-2-(6-(3-bromo-2,6-difluorophenyl)-3-thioxo-2,5,6,7-tetrahydro-3H-pyrrolo[1,2-c]imidazol-1-yl)-N-(2-(methylsulfonyl)ethyl)acetamide]
Plasma (0.01 μM), activity in % of control: 89.2 % of control
Plasma (0.1 μM), activity in % of control: 49.0 % of control

O=C(Cc1[nH]c(=S)n2c1C[C@H](c1c(F)ccc(Br)c1F)C2)NCCO [Example 119, (R)-2-(6-(3-bromo-2,6-difluorophenyl)-3-thioxo-2,5,6,7-tetrahydro-3H-pyrrolo[1,2-c]imidazol-1-yl)-N-(2-hydroxyethyl)acetamide]
Plasma (0.01 μM), activity in % of control: 118.2 % of control
Plasma (0.1 μM), activity in % of control: 87.7 % of control

O=C(Cc1[nH]c(=S)n2c1C[C@H](c1c(F)ccc(Br)c1F)C2)NC1CCCC1CO (stereo partly drawn) [Example 120, 2-((R)-6-(3-bromo-2,6-difluorophenyl)-3-thioxo-2,5,6,7-tetrahydro-3H-pyrrolo[1,2-c]imidazol-1-yl)-N-(2-(hydroxymethyl)cyclopentyl)acetamide]
Plasma (0.01 μM), activity in % of control: 132.5 % of control
Plasma (0.1 μM), activity in % of control: 86.2 % of control

O=C(Cc1[nH]c(=S)n2c1C[C@H](c1c(F)ccc(Br)c1F)C2)N1CCCC(O)C1 (stereo partly drawn) [Example 121, 2-((R)-6-(3-bromo-2,6-difluorophenyl)-3-thioxo-2,5,6,7-tetrahydro-3H-pyrrolo[1,2-c]imidazol-1-yl)-1-(3-hydroxypiperidin-1-yl)ethan-1-one]
Plasma (0.01 μM), activity in % of control: 79.3 % of control
Plasma (0.1 μM), activity in % of control: 62.6 % of control

CC(C)(C)OC(=O)N1CCC[C@@H]1CNC(=O)Cc1[nH]c(=S)n2c1C[C@@H](c1c(F)ccc(Br)c1F)C2 [Example 122, tert-butyl (R)-2-((2-((S)-6-(3-bromo-2,6-difluorophenyl)-3-thioxo-2,5,6,7-tetrahydro-3H-pyrrolo[1,2-c]imidazol-1-yl)acetamido)methyl)pyrrolidine-1-carboxylate]
Plasma (0.01 μM), activity in % of control: 70.8 % of control
Plasma (0.1 μM), activity in % of control: 13.0 % of control

CS(=O)(=O)C1CCN(C(=O)Cc2[nH]c(=S)n3c2C[C@@H](c2c(F)ccc(Br)c2F)C3)CC1 [Example 123, (S)-2-(6-(3-bromo-2,6-difluorophenyl)-3-thioxo-2,5,6,7-tetrahydro-3H-pyrrolo[1,2-c]imidazol-1-yl)-1-(4-(methylsulfonyl)piperidin-1-yl)ethan-1-one]
Plasma (0.01 μM), activity in % of control: 51.9 % of control
Plasma (0.1 μM), activity in % of control: 6.3 % of control
